pKi: −log10 of the molar value.
Legend:
[1] = target: human Adenosine A1 receptor (Homo sapiens (Human), UniProt P30542); experiment: Adenosine receptor TR-FRET binding assay (A1); conditions: inhibition of binding of 100 nM CA200645, CHO cell membranes
Protocol: (§1) Biological Example 1—Adenosine Receptor Time-Resolved Fluorescence Resonance Energy Transfer (TRFRET) Binding Assay
(§2) All FRET binding experiments were conducted at room temperature in white 384-well plates, in assay binding buffer containing 1×LabMed (Cisbio, France), 100 μg/mL saponin, 1% DMSO and 0.02% pluronic acid. Binding of the fluorescently labelled Adenosine receptor antagonist XAC (CA200645, FRET acceptor) to terbium-labelled A1, A2a, A2b and A3 adenosine receptors (FRET donors) was detected by time-resolved FRET due to the close proximity of the donor and acceptor in a binding event. To investigate the ability of unlabelled test compounds to bind to Adenosine A1, A2a, A2b and A3 receptors, dose response curves were constructed that determined the ability of a range of concentrations to inhibit the binding of 30 nM CA200645 to the A2b receptor and 100 nM CA200645 to the A1, A2a, and A3 receptor.
(§3) Serial dilution (1:3 dilutions) of test compounds in neat DMSO and transfer of a 400 nL sample of test compound into the assay plate was carried out using the Mosquito (TTP Labtech, UK). The compound samples were incubated for 2 hours at room temperature with a fixed concentration of CA200645 defined for each receptor (see above) and CHO cell membranes containing the human Adenosine A1 (0.5 μg/well), A2a (0.3 μg/well), A2b (1 μg/well) or A3 (1 μg/well) receptor in 40 μL of assay buffer. Total and non-specific binding of CA200645 was determined in the absence and presence of 10 μM XAC, respectively. Following 2 hours incubation, the level of CA200645 binding was detected on a Pherastar FSX (BMG Labtech, Germany) using standard TR-FRET settings. The terbium donor was excited with three laser flashes at a wavelength of 337 nm, and donor and acceptor emission was detected at 620 nm and 665 nm wavelengths, respectively. FRET ratios were obtained by multiplying the acceptor/donor ratio value by 10,000. Specific binding was determined by subtracting the non-specific binding FRET ratio from the total binding FRET ratio. Compound IC50 curves were analysed using GraphPad Prism 7.0 (GraphPad, USA) and Ki affinity values were determined from the obtained IC50 values using the method of Cheng and Prusoff.

[2] = target: human Adenosine A2a receptor (Homo sapiens (Human), UniProt P29274); experiment: Adenosine receptor TR-FRET binding assay (A2a); conditions: inhibition of binding of 100 nM CA200645, CHO cell membranes
human Adenosine A2a receptor, sequence (P29274 whole entry): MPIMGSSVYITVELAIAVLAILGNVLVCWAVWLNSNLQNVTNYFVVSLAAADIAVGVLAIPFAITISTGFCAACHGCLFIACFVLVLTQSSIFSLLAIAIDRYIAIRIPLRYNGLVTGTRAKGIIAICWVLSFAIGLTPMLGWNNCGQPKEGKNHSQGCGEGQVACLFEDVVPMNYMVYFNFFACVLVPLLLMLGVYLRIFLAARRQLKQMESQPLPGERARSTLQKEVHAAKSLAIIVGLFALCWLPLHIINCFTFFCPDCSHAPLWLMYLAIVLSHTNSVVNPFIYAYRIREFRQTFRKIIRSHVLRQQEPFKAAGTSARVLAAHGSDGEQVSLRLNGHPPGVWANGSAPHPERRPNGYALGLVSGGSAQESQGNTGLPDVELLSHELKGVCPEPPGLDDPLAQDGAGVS
Protocol: as §1, §2, §3

[3] = target: human Adenosine A2b receptor (Homo sapiens (Human), UniProt P29275); experiment: Adenosine receptor TR-FRET binding assay (A2b); conditions: TR-FRET, inhibition of binding of 30 nM CA200645, CHO cell membranes
human Adenosine A2b receptor, sequence (P29275 whole entry): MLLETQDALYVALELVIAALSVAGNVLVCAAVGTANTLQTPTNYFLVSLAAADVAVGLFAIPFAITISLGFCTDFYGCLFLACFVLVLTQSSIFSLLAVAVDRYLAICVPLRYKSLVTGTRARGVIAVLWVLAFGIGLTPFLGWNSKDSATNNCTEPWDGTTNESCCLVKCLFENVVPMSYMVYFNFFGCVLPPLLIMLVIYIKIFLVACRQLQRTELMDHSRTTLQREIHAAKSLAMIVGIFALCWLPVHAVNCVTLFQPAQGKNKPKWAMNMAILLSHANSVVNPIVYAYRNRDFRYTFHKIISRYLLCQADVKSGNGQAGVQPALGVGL
Protocol: as §1, §2, §3

[4] = target: human Adenosine A3 receptor (Homo sapiens (Human), UniProt P0DMS8); experiment: Adenosine receptor TR-FRET binding assay (A3); conditions: inhibition of binding of 100 nM CA200645, CHO cell membranes
human Adenosine A3 receptor, sequence (P0DMS8 whole entry): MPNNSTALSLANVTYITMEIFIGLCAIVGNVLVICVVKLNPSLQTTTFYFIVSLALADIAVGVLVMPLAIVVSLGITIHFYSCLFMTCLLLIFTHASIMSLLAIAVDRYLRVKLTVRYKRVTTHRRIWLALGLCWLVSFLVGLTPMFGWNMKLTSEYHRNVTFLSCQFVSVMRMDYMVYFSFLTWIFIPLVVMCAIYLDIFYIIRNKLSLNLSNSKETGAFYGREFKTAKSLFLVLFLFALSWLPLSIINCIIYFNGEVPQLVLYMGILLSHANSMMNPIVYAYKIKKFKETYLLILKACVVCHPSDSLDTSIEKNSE
Protocol: as §1, §2, §3

human Adenosine A1 receptor, sequence (P30542 whole entry): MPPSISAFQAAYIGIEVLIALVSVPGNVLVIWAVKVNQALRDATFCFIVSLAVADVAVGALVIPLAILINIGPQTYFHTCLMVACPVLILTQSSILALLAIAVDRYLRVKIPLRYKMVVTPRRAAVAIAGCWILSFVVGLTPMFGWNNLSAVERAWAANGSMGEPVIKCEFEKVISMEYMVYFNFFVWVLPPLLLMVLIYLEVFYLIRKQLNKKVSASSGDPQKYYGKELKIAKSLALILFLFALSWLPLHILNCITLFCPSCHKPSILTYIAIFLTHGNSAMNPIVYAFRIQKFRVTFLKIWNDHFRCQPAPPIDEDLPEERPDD

pKi [1] | pKi [2] | pKi [3] | pKi [4] | Compound
7.49 | 9.06 | 8.82 | 6.90 | Cc1cc(-c2sc(NC(=O)N3CC[C@H](C(N)=O)C3)nc2-c2cccc(C#N)c2)cc(C)n1 [Example 6.3, (3S)-N1-[4-(3-Cyanophenyl)-5-(2,6-dimethyl-4-pyridyl)thiazol-2-yl]pyrrolidine-1,3-dicarboxamide]
7.64 | 9.14 | 8.96 | 6.51 | Cc1cc(-c2sc(NC(=O)N3CC[C@@H](C(N)=O)C3)nc2-c2cccc(C#N)c2)cc(C)n1 [Example 6.8, (3R)-N1-[4-(3-Cyanophenyl)-5-(2,6-dimethyl-4-pyridyl)thiazol-2-yl]pyrrolidine-1,3-dicarboxamide]
6.58 | 8.69 | 8.23 | 6.59 | Cc1cc(-c2sc(NC(=O)N3CC(=O)N4CCCCC4C3)nc2-c2cccc(C#N)c2)cc(C)n1 (stereo not shown) [Example 6.15, N-[4-(3-Cyanophenyl)-5-(2,6-dimethyl-4-pyridyl)thiazol-2-yl]-4-oxo-3,6,7,8,9,9a-hexahydro-1H-pyrido[1,2-a]pyrazine-2-carboxamide]
6.37 | 8.40 | 7.75 | 6.25 | Cc1cc(-c2sc(NC(=O)N3CCN4CCNC(=O)C4C3)nc2-c2cccc(C#N)c2)cc(C)n1 (stereo not shown) [Example 6.16, N-[4-(3-Cyanophenyl)-5-(2,6-dimethyl-4-pyridyl)thiazol-2-yl]-9-oxo-3,4,6,7,8,9a-hexahydro-1H-pyrazino[1,2-a]pyrazine-2-carboxamide]
7.70 | 9.21 | 8.96 | 6.89 | Cc1cc(-c2sc(NC(=O)N3CC[S+]([O-])CC3)nc2-c2cccc(C#N)c2)cc(C(F)F)n1 [Example 6.19, N-[4-(3-Cyanophenyl)-5-[2-(difluoromethyl)-6-methyl-4-pyridyl]thiazol-2-yl]-1-oxo-1,4-thiazinane-4-carboxamide]
8.22 | 9.07 | 8.89 | 7.02 | Cc1cc(-c2sc(NC(=O)N3CCC(n4cccn4)CC3)nc2-c2cccc(C#N)c2)cc(C)n1 [Example 6.21, N-[4-(3-Cyanophenyl)-5-(2,6-dimethyl-4-pyridyl)thiazol-2-yl]-4-pyrazol-1-yl-piperidine-1-carboxamide]
8.40 | 9.42 | 8.74 | 6.97 | Cc1cc(-c2sc(NC(=O)N3CCC(c4ncon4)CC3)nc2-c2cccc(C#N)c2)cc(C)n1 [Example 6.22, N-[4-(3-Cyanophenyl)-5-(2,6-dimethyl-4-pyridyl)thiazol-2-yl]-4-(1,2,4-oxadiazol-3-yl)piperidine-1-carboxamide]
7.04 | 8.52 | 8.19 | 6.40 | Cc1cc(-c2sc(NC(=O)N3CCN4C(=O)NC(=O)C4C3)nc2-c2cccc(C#N)c2)cc(C)n1 (stereo not shown) [Example 6.23, N-[4-(3-Cyanophenyl)-5-(2,6-dimethyl-4-pyridyl)thiazol-2-yl]-1,3-dioxo-5,6,8,8a-tetrahydroimidazo[1,5-a]pyrazine-7-carboxamide]
8.70 | 8.76 | 8.96 | 7.03 | Cc1cc(-c2sc(NC(=O)N3CCC(c4ncc[nH]4)CC3)nc2-c2cccc(C#N)c2)cc(C)n1 [Example 6.25, N-[4-(3-Cyanophenyl)-5-(2,6-dimethyl-4-pyridyl)thiazol-2-yl]-4-(1H-imidazol-2-yl)piperidine-1-carboxamide]
7.35 | 9.00 | 8.85 | 6.82 | Cc1cc(-c2sc(NC(=O)N3CCn4ccnc4C3)nc2-c2cccc(C#N)c2)cc(C)n1 [Example 6.27, N-[4-(3-Cyanophenyl)-5-(2,6-dimethyl-4-pyridyl)thiazol-2-yl]-6,8-dihydro-5H-imidazo[1,2-a]pyrazine-7-carboxamide]
7.49 | 8.32 | 8.49 | 6.65 | CNC(=O)C1CCN(C(=O)Nc2nc(-c3cccc(C#N)c3)c(-c3cc(C)nc(C)c3)s2)CC1 [Example 6.28, N1-[4-(3-Cyanophenyl)-5-(2,6-dimethyl-4-pyridyl)thiazol-2-yl]-N4-methyl-piperidine-1,4-dicarboxamide]
7.72 | 8.82 | 8.68 | 6.73 | Cc1cc(-c2sc(NC(=O)N3CCC(c4ncno4)CC3)nc2-c2cccc(C#N)c2)cc(C)n1 [Example 6.31, N-[4-(3-Cyanophenyl)-5-(2,6-dimethyl-4-pyridyl)thiazol-2-yl]-4-(1,2,4-oxadiazol-5-yl)piperidine-1-carboxamide]
7.29 | 8.44 | 8.44 | 6.57 | Cc1cc(-c2sc(NC(=O)N3CCC(C(=O)NCCO)CC3)nc2-c2cccc(C#N)c2)cc(C)n1 [Example 6.33, N1-[4-(3-Cyanophenyl)-5-(2,6-dimethyl-4-pyridyl)thiazol-2-yl]-N4-(2-hydroxyethyl)piperidine-1,4-dicarboxamide]
7.59 | 9.19 | 8.68 | 6.78 | Cc1cc(-c2sc(NC(=O)N3CC4(CCOC(=O)N4)C3)nc2-c2cccc(C#N)c2)cc(C)n1 [Example 6.34, N-[4-(3-Cyanophenyl)-5-(2,6-dimethyl-4-pyridyl)thiazol-2-yl]-6-oxo-7-oxa-2,5-diazaspiro[3.5]nonane-2-carboxamide]

The next lines start with the compound.

Compound | pKi [1] | pKi [2] | pKi [3] | pKi [4]
Cc1cc(-c2sc(NC(=O)N3CCO[C@H](CO)C3)nc2-c2cccc(C#N)c2)cc(C)n1 [Example 4.21, (2S)-N-[4-(3-Cyanophenyl)-5-(2,6-dimethyl-4-pyridyl)thiazol-2-yl]-2-(hydroxymethyl)morpholine-4-carboxamide] | 8.00 | 9.52 | 9.00 | 6.58
Cc1cc(-c2sc(NC(=O)N3CCS(=O)(=O)CC3)nc2-c2cccc(C#N)c2)cc(C)n1 [Example 4.27, N-[4-(3-Cyanophenyl)-5-(2,6-dimethyl-4-pyridyl)thiazol-2-yl]-1,1-dioxo-1,4-thiazinane-4-carboxamide] | 8.22 | 10.00 | 9.10 | 6.37
Cc1cc(-c2sc(NC(=O)N3CCN(CCO)C(=O)C3)nc2-c2cccc(C#N)c2)cc(C)n1 [Example 4.31, N-[4-(3-Cyanophenyl)-5-(2,6-dimethyl-4-pyridyl)thiazol-2-yl]-4-(2-hydroxyethyl)-3-oxo-piperazine-1-carboxamide] | 6.68 | 8.43 | 8.33 | 6.37
Cc1cc(-c2sc(NC(=O)N3CC(C(C)(C)O)C3)nc2-c2cccc(C#N)c2)cc(C)n1 [Example 4.33, N-[4-(3-Cyanophenyl)-5-(2,6-dimethyl-4-pyridyl)thiazol-2-yl]-3-(1-hydroxy-1-methyl-ethyl)azetidine-1-carboxamide] | 7.21 | 8.72 | 8.23 | 6.39
Cc1cc(-c2sc(NC(=O)N3CCN[C@@H](C(=O)O)C3)nc2-c2cccc(C#N)c2)cc(Cl)n1 [Example 5, (2R)-4-[[5-(2-Chloro-6-methyl-4-pyridyl)-4-(3-cyanophenyl)thiazol-2-yl]carbamoyl]piperazine-2-carboxylic acid] | 6.22 | 8.24 | 8.26 | 6.16
COC(=O)[C@H]1CN(C(=O)Nc2nc(-c3cccc(C#N)c3)c(-c3cc(C)nc(Cl)c3)s2)CCN1 [Example 5.1, Methyl (2R)-4-[[5-(2-chloro-6-methyl-4-pyridyl)-4-(3-cyanophenyl)thiazol-2-yl]carbamoyl]piperazine-2-carboxylate] | 7.35 | 9.21 | 8.80 | 6.64
Cc1cc(-c2sc(NC(=O)N3CCN[C@@H](CO)C3)nc2-c2cccc(C#N)c2)cc(Cl)n1 [Example 5.3, (3R)-N-[5-(2-Chloro-6-methyl-4-pyridyl)-4-(3-cyanophenyl)thiazol-2-yl]-3-(hydroxymethyl)piperazine-1-carboxamide] | 7.05 | 8.64 | 8.68 | 7.01
Cc1cc(-c2sc(NC(=O)N3CCN[C@@H](C(N)=O)C3)nc2-c2cccc(C#N)c2)cc(Cl)n1 [Example 5.7, (3R)-N1-[5-(2-Chloro-6-methyl-4-pyridyl)-4-(3-cyanophenyl)thiazol-2-yl]piperazine-1,3-dicarboxamide] | 7.32 | 8.54 | 8.74 | 6.61
